Among the data in US6919375B1, “Sulfonated amino acid derivatives and metalloproteinase inhibitors containing the same” (Shionogi & Co., Ltd., priority 1996, dated 2005) are IC50 values, retold here.

Each structure is given as a SMILES string.

T1 sequence (P14780 107-707 limits assumed): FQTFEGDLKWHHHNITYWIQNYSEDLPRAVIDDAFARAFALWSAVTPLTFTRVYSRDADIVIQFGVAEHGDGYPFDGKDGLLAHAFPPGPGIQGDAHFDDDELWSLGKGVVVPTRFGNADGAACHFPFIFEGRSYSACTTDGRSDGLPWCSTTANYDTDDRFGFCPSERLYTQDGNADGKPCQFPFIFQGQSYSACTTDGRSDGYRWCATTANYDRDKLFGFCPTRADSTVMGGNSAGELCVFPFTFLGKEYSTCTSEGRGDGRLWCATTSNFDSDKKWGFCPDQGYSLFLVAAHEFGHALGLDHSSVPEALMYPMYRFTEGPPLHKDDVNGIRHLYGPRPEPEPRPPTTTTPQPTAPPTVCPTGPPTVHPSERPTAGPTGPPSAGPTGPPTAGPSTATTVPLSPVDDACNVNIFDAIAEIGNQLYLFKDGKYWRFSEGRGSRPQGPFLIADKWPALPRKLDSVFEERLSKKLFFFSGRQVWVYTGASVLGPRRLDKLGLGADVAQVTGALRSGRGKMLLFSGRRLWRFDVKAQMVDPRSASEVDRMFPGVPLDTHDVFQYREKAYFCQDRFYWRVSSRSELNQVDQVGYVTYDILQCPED

This experiment addresses T1, Type IV collagenase (MMP-9) (Homo sapiens, UniProt P14780).
T1 construct: made in house; host or cells: endogenous secretion by TPA-stimulated human fibrosarcoma HT 1080 cells; purified from conditioned medium
Kind of experiment: Type IV collagenase (MMP-9) inhibition assay, fluorescent substrate kit. It is filed as biochemical. As to conditions: activated MMP-9 from HT 1080 cells; type IV collagenase activity kit, fluorescent intensity. The procedure:
(1) Isolation and Purification of MMP-9 (92 kDa, Gelatinase B)
Type IV collagenase (MMP-9) was purified according to the methods descrived in the following literature.
Subsequently, activated MMP-9 was obtained by treating the pro-MMP-9 with trypsin.
(2) Assay Methods of Type IV Collagenase Inhibitors
Collagenase assay was performed using the activated MMP-9 described above and the substrate supplied in the type IV collagenase activity kit (YAGAI, inc.), according to the manufacturer's protocol. The following 4 assays are performed per compound (inhibitor). • (A) substrate ([…]), enzyme (MMP-9), inhibitor • (B) substrate ([…]), inhibitor • (C) substrate ([…]), enzyme (MMP-9) • (D) substrate ([…])
According to the manufacturer's protocol, fluorescent intensity was measured and percent inhibition was determined by the following equation. Inhibition (%)={1−(A−B)/(C−D;)}×100
For the molecule `O=C(NO)[C@@H](Cc1ccccc1)NS(=O)(=O)c1ccc(-c2nnn(-c3ccccc3)n2)cc1` [Example 1b-211], the IC50 stood at 5.65 nM.
Next, `O=C(O)[C@@H](Cc1ccccc1)NS(=O)(=O)c1ccc(-c2nnn(-c3ccccc3)n2)cc1` [Example 1a-5-3]: 210 nM; `O=C(NO)C(Cc1nc2ccccc2[nH]1)NS(=O)(=O)c1ccc(-c2ccccc2)cc1` (racemic) [Example 1b.1-35]: 21.6 nM.
